Test results published in PubChem BioAssay AID258 (DTP/NCI, 2004).
Several values for one entry are separate records, joined by “and”; a condition that tells them apart may be missing. Equal values may be shown once. Toxic doses and inconclusive results are not listed.

Tested on: CD2F1 mice, L1210 leukemia sc, survival T/C
Experiment: NCI In Vivo Anticancer Drug Screen. Data for tumor model L1210 Leukemia (subcutaneous) in CD2F1 (CDF1) mice
Conditions: endpoint: median survival time, higher = longer survival
Description: The antitumor activity of compounds was measured in mice bearing transplantable tumors. Survival or tumor size were measured and the results are expressed as the measurement made in the treated group (T) divided by the measurement made in the vehicle treated control group (C). The tumor model used in this assay is L1210 Leukemia (subcutaneous) in CD2F1 (CDF1) mice

In the case of `CC1CCC(NC(=O)N(CCCl)N=O)CC1` (centres undefined), the T/C (dose: 0.25 mg/kg/injection, schedule: Q01DX009 (ip), vehicle: saline + alcohol) is reported as 96 % of control, the T/C (dose: 0.5 mg/kg/injection, schedule: Q01DX009 (ip), vehicle: saline + alcohol) is reported as 112 % of control and the T/C (dose: 1.0 mg/kg/injection, schedule: Q01DX009 (ip), vehicle: saline + alcohol) is reported as 122 % of control. For the same compound, the T/C (dose: 4.0 mg/kg/injection, schedule: Q01DX009 (ip), vehicle: saline + alcohol) was 153 % of control and 239 % of control, the T/C (dose: 4.0 mg/kg/injection, schedule: Q01DX009 (sc), vehicle: saline + alcohol) was 107 % of control and the T/C (dose: 5.3 mg/kg/injection, schedule: Q01DX009 (sc), vehicle: saline + alcohol) was 225 % of control. The T/C (dose: 8.0 mg/kg/injection, schedule: Q01DX009 (ip), vehicle: saline + alcohol) was 163 % of control and 267 % of control, the T/C (dose: 8.0 mg/kg/injection, schedule: Q01DX009 (sc), vehicle: saline + alcohol) was 120 % of control and 246 % of control and the T/C (dose: 10.7 mg/kg/injection, schedule: Q01DX009 (ip), vehicle: saline + alcohol) was 745 % of control. For the same compound, the T/C (dose: 12.0 mg/kg/injection, schedule: Q01DX009 (sc), vehicle: saline + alcohol) was 250 % of control, the T/C (dose: 16.0 mg/kg/injection, schedule: Q01DX009 (ip), vehicle: saline + alcohol) was 200 % of control and 230 % of control and the T/C (dose: 16.0 mg/kg/injection, schedule: Q01DX009 (sc), vehicle: saline + alcohol) was 198 % of control and 209 % of control. For the same compound, the T/C (dose: 21.4 mg/kg/injection, schedule: Q01DX009 (sc), vehicle: saline + alcohol) was 400 % of control, the T/C (dose: 24.0 mg/kg/injection, schedule: Q01DX009 (ip), vehicle: saline + alcohol) was 153 % of control and the T/C (dose: 24.0 mg/kg/injection, schedule: Q01DX009 (sc), vehicle: saline + alcohol) was 123 % of control. For the same compound, the T/C (dose: 32.0 mg/kg/injection, schedule: Q01DX009 (sc), vehicle: saline + alcohol) was 162 % of control and 203 % of control, the T/C (dose: 48.0 mg/kg/injection, schedule: Q01DX009 (ip), vehicle: saline + alcohol) was 90 % of control and the T/C (dose: 48.0 mg/kg/injection, schedule: Q01DX009 (sc), vehicle: saline + alcohol) was 189 % of control. The T/C (dose: 64.0 mg/kg/injection, schedule: Q01DX009 (ip), vehicle: saline + alcohol) was 150 % of control, the T/C (dose: 64.0 mg/kg/injection, schedule: Q01DX009 (sc), vehicle: saline + alcohol) was 122 % of control and the T/C (dose: 256.0 mg/kg/injection, schedule: Q01DX009 (sc), vehicle: saline + alcohol) was 120 % of control.
In the case of `C[C@H](N)C(=O)N[C@@H]1[C@H]2C(=C(O)C[C@@H](O)[C@@H]2O)C(=O)O[C@]1(C)C(Cl)Cl`, the T/C (dose: 0.37 mg/kg/injection, schedule: Q01DX009 (ip), vehicle: water) is reported as 111 % of control, the T/C (dose: 0.62 mg/kg/injection, schedule: Q01DX005 (ip), vehicle: water) is reported as 112 % of control and the T/C (dose: 0.62 mg/kg/injection, schedule: Q01DX005 (iv), vehicle: water) is reported as 113 % of control. The T/C (dose: 0.75 mg/kg/injection, schedule: Q01DX009 (ip), vehicle: water) was 120 % of control, the T/C (dose: 0.75 mg/kg/injection, schedule: Q01DX009 (sc), vehicle: water) was 116 % of control and the T/C (dose: 1.25 mg/kg/injection, schedule: Q01DX005 (ip), vehicle: water) was 124 % of control. The T/C (dose: 1.5 mg/kg/injection, schedule: Q01DX009 (oral), vehicle: water) was 108 % of control, the T/C (dose: 3.0 mg/kg/injection, schedule: Q01DX009 (ip), vehicle: water) was 160 % of control and the T/C (dose: 3.0 mg/kg/injection, schedule: Q01DX009 (oral), vehicle: water) was 109 % of control. For the same compound, the T/C (dose: 3.0 mg/kg/injection, schedule: Q01DX009 (sc), vehicle: water) was 160 % of control, the T/C (dose: 6.0 mg/kg/injection, schedule: Q01DX009 (oral), vehicle: water) was 112 % of control and the T/C (dose: 12.0 mg/kg/injection, schedule: Q01DX009 (oral), vehicle: water) was 120 % of control.
With `[Cl][Pt+2][Cl].[NH-]CC1(C[NH-])CCC1` the T/C (dose: 3.12 mg/kg/injection, schedule: Q01DX009 (ip), vehicle: Klucel (hydroxypropylcellulose) (HPC)) was 158 % of control.
In the case of `O=C(Nc1cccc(C2=NCCN2)c1)c1ccc(-c2ccc(C(=O)Nc3cccc(C4=NCCN4)c3)cc2)cc1`, the T/C (dose: 23.0 mg/kg/injection, schedule: Q01DX Z (sc), vehicle: water) is reported as 110 % of control, the T/C (dose: 39.0 mg/kg/injection, schedule: Q01DX Z (sc), vehicle: water) is reported as 105 % of control and the T/C (dose: 65.0 mg/kg/injection, schedule: Q01DX Z (sc), vehicle: water) is reported as 100 % of control. The T/C (dose: 108.0 mg/kg/injection, schedule: Q01DX Z (sc), vehicle: water) was 105 % of control and the T/C (dose: 180.0 mg/kg/injection, schedule: Q01DX Z (sc), vehicle: water) was 100 % of control.
For `CS(=O)(=O)OCCCCCCCCCOS(C)(=O)=O`, the T/C (dose: 47.0 mg/kg/injection, schedule: Q01DX Z (sc), vehicle: carboxymethylcellulose (CMC)) was 112 % of control.
With `Nc1nc2ncn(O)c2c(=O)[nH]1` the T/C (dose: 4.5 mg/kg/injection, schedule: Q01DX009 (ip), vehicle: other) was 278 % of control, the T/C (dose: 7.5 mg/kg/injection, schedule: Q01DX009 (ip), vehicle: other) was 164 % of control and the T/C (dose: 12.5 mg/kg/injection, schedule: Q01DX009 (ip), vehicle: other) was 268 % of control. For the same compound, the T/C (dose: 20.83 mg/kg/injection, schedule: Q01DX009 (ip), vehicle: other) was 113 % of control.
With `C[C@]12CCC(=O)C=C1CC[C@@H]1[C@@H]2[C@@H](O)C[C@@]2(C)[C@H]1CC[C@]2(O)C(=O)CO` the T/C (dose: 300.0 mg/kg/injection, schedule: Q01DX Z (sc), vehicle: methylcellulose (MC)) was 115 % of control.
In the case of `O=C(Nc1ccccc1)c1c(O)[nH]c(=S)[nH]c1=O`, the T/C (dose: 5.6 mg/kg/injection, schedule: Q03HX008 (ip), vehicle: other) is reported as 107 % of control and 96 % of control, the T/C (dose: 5.9 mg/kg/injection, schedule: Q04HX006 (iv), vehicle: other) is reported as 110 % of control and the T/C (dose: 8.4 mg/kg/injection, schedule: Q03HX008 (ip), vehicle: other) is reported as 107 % of control. For the same compound, the T/C (dose: 8.9 mg/kg/injection, schedule: Q01DX003 (iv), vehicle: other) was 105 % of control, the T/C (dose: 8.9 mg/kg/injection, schedule: Q04HX006 (iv), vehicle: other) was 109 % of control and the T/C (dose: 12.6 mg/kg/injection, schedule: Q03HX008 (ip), vehicle: other) was 104 % of control and 111 % of control. The T/C (dose: 13.4 mg/kg/injection, schedule: Q01DX003 (iv), vehicle: other) was 101 % of control, the T/C (dose: 13.4 mg/kg/injection, schedule: Q01DX005 (ip), vehicle: other) was 100 % of control and 103 % of control and the T/C (dose: 13.4 mg/kg/injection, schedule: Q04HX006 (iv), vehicle: other) was 113 % of control. For the same compound, the T/C (dose: 18.8 mg/kg/injection, schedule: Q03HX008 (ip), vehicle: other) was 122 % of control, the T/C (dose: 20.0 mg/kg/injection, schedule: Q01DX003 (iv), vehicle: other) was 107 % of control and the T/C (dose: 20.0 mg/kg/injection, schedule: Q01DX005 (ip), vehicle: other) was 106 % of control and 115 % of control. The T/C (dose: 20.0 mg/kg/injection, schedule: Q04HX006 (iv), vehicle: other) was 119 % of control, the T/C (dose: 28.2 mg/kg/injection, schedule: Q03HX008 (ip), vehicle: other) was 157 % of control and 163 % of control and the T/C (dose: 29.8 mg/kg/injection, schedule: Q01DX001 (ip), vehicle: other) was 105 % of control and 107 % of control. For the same compound, the T/C (dose: 30.0 mg/kg/injection, schedule: Q01DX003 (iv), vehicle: other) was 124 % of control, the T/C (dose: 30.0 mg/kg/injection, schedule: Q04HX006 (iv), vehicle: other) was 168 % of control and the T/C (dose: 44.7 mg/kg/injection, schedule: Q01DX001 (ip), vehicle: other) was 117 % of control and 119 % of control. The T/C (dose: 45.0 mg/kg/injection, schedule: Q01DX003 (iv), vehicle: other) was 161 % of control and the T/C (dose: 45.0 mg/kg/injection, schedule: Q01DX005 (ip), vehicle: other) was 173 % of control and 184 % of control.
With `Nc1nncs1` the T/C (dose: 39.0 mg/kg/injection, schedule: Q02DX005 (sc), vehicle: water) was 100 % of control and 103 % of control, the T/C (dose: 65.0 mg/kg/injection, schedule: Q02DX005 (sc), vehicle: water) was 100 % of control and 102 % of control and the T/C (dose: 108.0 mg/kg/injection, schedule: Q02DX005 (sc), vehicle: water) was 100 % of control and 106 % of control. The T/C (dose: 180.0 mg/kg/injection, schedule: Q02DX005 (sc), vehicle: water) was 122 % of control, the T/C (dose: 300.0 mg/kg/injection, schedule: Q02DX005 (sc), vehicle: water) was 166 % of control and 180 % of control and the T/C (dose: 300.0 mg/kg/injection, schedule: Q04DX003 (sc), vehicle: saline) was 100 % of control and 104 % of control. For the same compound, the T/C (dose: 500.0 mg/kg/injection, schedule: Q02DX005 (sc), vehicle: water) was 172 % of control and 180 % of control, the T/C (dose: 500.0 mg/kg/injection, schedule: Q04DX003 (sc), vehicle: saline) was 105 % of control and 112 % of control and the T/C (dose: 833.0 mg/kg/injection, schedule: Q04DX003 (sc), vehicle: saline) was 116 % of control and 124 % of control. The T/C (dose: 1388.0 mg/kg/injection, schedule: Q04DX003 (sc), vehicle: saline) was 154 % of control.
For `CC(C)(C)N1CC1CNC(=O)C(=O)NCC1CN1C(C)(C)C` (centres undefined), the T/C (dose: 3.13 mg/kg/injection, schedule: Q01DX009 (ip), vehicle: saline with Tween-80) was 107 % of control and 108 % of control, the T/C (dose: 6.25 mg/kg/injection, schedule: Q01DX009 (ip), vehicle: saline with Tween-80) was 122 % of control and the T/C (dose: 12.5 mg/kg/injection, schedule: Q01DX009 (ip), vehicle: saline with Tween-80) was 157 % of control. The T/C (dose: 25.0 mg/kg/injection, schedule: Q01DX009 (ip), vehicle: saline with Tween-80) was 86 % of control.
